These results are taken from patent US9624254B2, “Hydroxysafflor yellow pharmaceutical salts” (ZHEJIANG YONGNING PHARMACEUTICAL CO LTD, priority 2013, dated 2017).

Several values for one entry are separate records, joined by “and”; a condition that tells them apart may be missing. Identical values can stand only once. Like-named read-outs stand apart in the source and are kept apart here.

Data set [1] deals with acute myocardial infarction among rats. The data set is described as follows: Rat acute myocardial infarction model (coronary ligature): arrhythmia ranking, infarcted area, myocardial enzymes. The data set is classed as in vivo. Here is the method:
Test method • 1. Preparation of rat acute myocardial infarction model: Intraperitoneal anesthesia was performed with 3% sodium pentobarbital, 45 mg/kg. Right femoral artery and vein catheter were inserted for blood pressure monitoring and intravenous administration, respectively. Artificial mechanical ventilation was given through tracheal intubation at a rate of 60 times/min, and with a ventilation volume of about 10 ml/kg. Electrocardiogram (ECG) was recorded by placing needle electrode in limbs. A longitudinal skin incision was made approximately 0.5 cm to left sternal border, followed by blunt dissection of the subcutaneous tissue. The pectoralis major, pectoralis minor, and the intercostal muscle were dissected, ligated and cut with scissors successively. The chest was open from the fourth intercostal space along the left sternal border where apical beat is most significant. Cut the pericardium open with scissors, and clamp the pericardium to bilateral chest wall with hemostatic forceps, to form a pericardial bed and expose vessels on the surface of the left ventricle. 6-0 silk suture was threaded through superficial layer of myocardium (i.e. the anterior descending coronary artery) about 2 mm under the left auricle. […] Arrhythmia ranking: The severity of arrhythmia which occurred within 30 min after coronary ligature was scored. • 3. Myocardial enzyme test: At the end of test, 2 ml of venous blood was taken, and centrifuged under 4° C. and 4000/min for 5 min. The supernatant was taken for myocardial enzyme test. Test items: LDH, AKP, CK. • 4. Measurement of myocardial infarcted area: 4 h after coronary ligature, puncture was performed to the anterior wall of the left ventricle, and carbon ink was injected. Then the animal was sacrificed, and the heart was removed and cleaned with normal saline. Blood and non-myocardial tissue such as vessel and fat were removed. Moisture was dried with absorbent paper. Then the heart was weighed. The heart was cut into sections of about 2 mm from cardiac apex to the base of heart parallel. The perfusion area (perfused with ink) and area at high risk of ischemia (without ink perfusion). […] The nonobstructive heart muscle stained was cut off with scissors, and the non-stained infarcted heart muscle was weighed, to calculate percentage of infarcted heart muscle in the area of heart muscle at risk by weight (weight of infarction area/weight of area at risk*100%). Statistical Analysis:
All the test data was expressed as mean±standard deviation, statistical test was done with analysis of variance (ANOVA), and the difference was considered significant if P<0.05.

The subject of data set [2] is Willis arteries from beagles (cerebral vascular ring). Set-up: species or system dog. An excerpt:
(§1) 1. Selectivity of isolated heart and cerebral vessel from dogs: During this study, Willis arteries and coronary ring from beagles were mounted on ex vivo vascular measuring device. Adjust the tension sensor, and add 10-6 mol/L phenylephrine into the liquid in bath cup, so as to maintain vascular tension. […] Calculate vasoconstriction or vasodilation change value.

For data set [3], the system named is coronary ring from beagles (cardiac vascular ring). Set-up: species or system dog.
From the text: as §1

In data set [4] the test system is acute cerebral ischemia model (MCAO). The data set is classed as in vivo, rat.
Data set [5] has as its system permeability of cerebral vessel. The data set is classed as in vivo, rat. Here is the method:
3. Effect on vasopermeability in rats: Rats were injected intravenously, once per day, for 7 days. After the last dose, rats were anesthetized, injected intravenously with Evans blue 50 mg/kg. After 5 minutes, bilateral common carotid arteries were ligated. The animals were sacrificed by decapitation after 3 hours. The brain was removed, weighed and immersed in formamide solution. It was placed in an incubator at 45° C. for 72 h. During this period, Evans blue in the cerebral vessel could be leached out into formamide solution. Testing the amount of Evans blue leached out into the formamide solution with spectrophotometer could indicate permeability of cerebral vessel.

The subject of the next data set is cerebral blood flow. It is filed as in vivo, dog. The source says:
4. Effect on cerebral blood flow of dog: Beagles were used as the study animal. After the dog was anesthetized with sodium pentobarbital, external jugular vein, internal jugular vein and vertebral artery were isolated surgically. The external jugular vein was ligated. Flow probes were placed in internal jugular vein and vertebral artery. Two times of the total blood flow recorded by both probes represented blood supply of the whole brain. At the end of the study, the brain was removed and weighed to calculate blood flow per 100 g of brain tissue.

Another data set deals with acute hypoxia. Description: Acute cerebral anoxia, survival in a closed vessel. The note with it: Kunming mice. It is filed as in vivo, mouse. How it is done:
5. Effect on acute cerebral anoxia: A study was carried out using Kunming mice […]. The animals were kept in an environment lacking oxygen. The survival duration was recorded to examine whether resistance to acute hypoxia was increased after animals given the medicine. […] Animals were kept in the container until respiration ceased.

Data set [6] concerns platelet adhered to the silk. The data set is classed as in vivo, rat. How it is done: (§2) 6. Anti-platelet aggregation: The study included two stages, instrument testing and in vivo test. […] 4 ml of blood was taken from heart 2 hours after the last dose. The blood was centrifuged under a low speed to obtain platelet-rich […]; and centrifuged under a high speed to obtain […] lacking platelet. Adenosine diphosphate (ADP) and platelet-activating factor (PAF) were chosen as the platelet aggregation inducing agent. And platelet aggregometer was used for testing. […] 2) In vivo method: An arteriovenous short was created with latex tubing in rats. There was surgical silk mounted in the latex tubing. Using characteristics of platelet adhesion, the short was opened to allow blood to flow trans-arteriovenously through the latex tubing. And then silk was removed and weighed. The weight of platelet adhered to the silk was calculated by subtracting the dry weight.

In another data set the test system is blood viscosity. The data set is classed as in vivo. As to conditions: rabbit. How it is done:
7. Effect on blood viscosity: Rabbit was treated intravenously, once per day, for 5 days. 2 hours after the last dose, blood was taken from heart and anticoagulated, and tested with blood rheometer directly.

The format of data set [7] is physicochemical. The note with it: for Content: calculated as hydroxysafflor yellow A.
The subject of data set [8] is platelet aggregation induced by ADP. The data set is described as follows: Anti-platelet aggregation, instrument testing (platelet aggregometer), ADP. The data set is classed as in vivo. As to conditions: rabbit, intravenous once per day for 5 days, blood 2 hours after last dose, three doses. How it is done: as §2
Data set [9] relates to platelet aggregation induced by PAF. Description: Anti-platelet aggregation, instrument testing (platelet aggregometer), PAF. The data set is classed as in vivo. The note with it: rabbit, intravenous once per day for 5 days, blood 2 hours after last dose, three doses. How it is done:
as §2

The mark [10] stands for this setting: serum, rats, 40 mg/kg intravenously, end of test.
Setting [11] is: 10-6 mol/L phenylephrine tension, 10 mg/ml added every 5 min, 4-5 times.
The mark [12] stands for this setting: beagles, intravenous, medium and high dose.

Turning to `O=C(/C=C/c1ccc(O)cc1)C1=C(O)C(O)(C2OC(CO)C(O)C(O)C2O)C([O][Ca][O]C2=C(C3OC(CO)C(O)C(O)C3O)C(=O)C(C(=O)/C=C/c3ccc(O)cc3)=C(O)C2(O)C2OC(CO)C(O)C(O)C2O)=C(C2OC(CO)C(O)C(O)C2O)C1=O` (centres unmarked) [Calcium hydroxysafflor yellow A], the “Extent of myocardial infarction compared to hydroxysafflor yellow for injection (in words)” value in data set [1] (rat, in vivo) is reported as “better efficacy in terms of reducing the extent of myocardial infarction”. In data set [1] (rat, in vivo, iv), the “Effect on serum LDH and CK (in words)” value is listed as “more significant efficacy”; the “Effect on severity of arrhythmia (in words)” value is recorded as “more effective”. Also, in [1] (rat, in vivo, iv, 40 mg/kg), the “AKP (IU/L)” value turned out to be 152 ± 24 IU/L, the Arrhythmia ranking is 1.46 ± 0.3, the “CK (IU/L)” value turned out to be 2139 ± 594 IU/L and the “Infarction area” value turned out to be 0.11 ± 0.04 g. Also, in [1] (rat, in vivo, iv, 40 mg/kg), the “Infarction rate (%)” value came to 29 ± 6 % and the “LDH (IU/L)” value was 463 ± 65 IU/L. The “Dilation on cerebral vascular ring” value in data set [2] is reported as 69.7%. Besides, in data set [3], the “Dilation on cardiac vascular ring” value was 37.1%. Besides, the “Area of cerebral infarction” value in data set [4] (rat, in vivo, iv) is 41.3% and 25.7% and 21.6%. For the same compound, the “Evans blue leached out from cerebral vessel (in words)” value in data set [5] (rat, in vivo, iv) is recorded as “very significant effect of reducing Evans blue being leached out from cerebral vessel”. Besides, in the data set with cerebral blood flow (dog, in vivo, iv), the “Cerebral blood flow (in words)” value is listed as “significantly increase blood flow” and the “Time for which blood flow was maintained” value is on record as “about 15 min”. Besides, the Survival duration in the data set with acute hypoxia (high dose) is recorded as 37 min. The same compound showed a Survival duration with acute hypoxia (low dose) of 35 min. The Survival duration in the data set on acute hypoxia (medium dose) turned out to be 38 min. Besides, the “Weight of platelet adhered on the silk” value in [6] (rat, in vivo) was 13.9 ± 1.54 mg and 10.26 ± 1.15 mg and 8.73 ± 1.79 mg. The “Blood viscosity effect compared with nimodipine positive control (in words)” value with blood viscosity (in vivo) was “superior to the positive control group”. Further, the “Blood viscosity, low shear, medium shear and high shear (in words)” value in the data set on blood viscosity (in vivo, iv) is “decreased as dose increased”. Moreover, in data set [7] (Accelerated 0 month), the Total purity is reported as 1.2%. In [7] (Accelerated 1 month), the Total purity amounted to 1.4% and the Content is recorded as 95.6%. Besides, in [7] (Accelerated 2 months), the Total purity is given as 1.9% and the Content was 95.1%. For the same compound, in [7] (Accelerated 3 months), the Total purity is reported as 2.6% and the Content is on record as 94.5%.

Consider `O=C(/C=C/c1ccc(O)cc1)C1=C(O)C(O)(C2OC(CO)C(O)C(O)C2O)C([O][Mg][O]C2=C(C3OC(CO)C(O)C(O)C3O)C(=O)C(C(=O)/C=C/c3ccc(O)cc3)=C(O)C2(O)C2OC(CO)C(O)C(O)C2O)=C(C2OC(CO)C(O)C(O)C2O)C1=O` (centres unmarked) [Magnesium hydroxysafflor yellow A], for which the Total purity is listed as 1.0% in data set [7] (Accelerated 0 month), 1.3% in [7] (Accelerated 1 month), 1.8% in data set [7] (Accelerated 2 months) and 2.4% in data set [7] (Accelerated 3 months). For the same compound, the Content in data set [7] (Accelerated 0 month) was 97.4%; in data set [7] (Accelerated 1 month), 97.0%; in data set [7] (Accelerated 2 months) it was 96.4%; in data set [7] (Accelerated 3 months), 95.8%.

In the case of `COCCOC(=O)C1=C(C)NC(C)=C(C(=O)OC(C)C)C1c1cccc([N+](=O)[O-])c1` (centres unmarked) [nimodipine, reference compound], the “Area of cerebral infarction” value in data set [4] (SD rats, positive group, 24 h after MCAO) was determined as 15.7%.

Take Potassium hydroxysafflor yellow A: the “Extent of myocardial infarction compared to hydroxysafflor yellow for injection (in words)” value in data set [1] (rats) is “better efficacy in terms of reducing the extent of myocardial infarction”. The “Infarction area” value in data set [1] (rats, 40 mg/kg intravenously, 4 h after coronary ligature, NBT staining, mean±SD) worked out at 0.10 ± 0.02 g. Moreover, in data set [1] (rats, 40 mg/kg intravenously, weight of infarction area/weight of area at risk*100%), the “Infarction rate (%)” value was 26 ± 9 %. The same compound displayed an Arrhythmia ranking in data set [1] (rats, 40 mg/kg intravenously, within 30 min after coronary ligature, mean±SD, n=8) of 1.38 ± 0.5. Moreover, the “Effect on serum LDH and CK (in words)” value in [1] (rats, given intravenously) was “more significant efficacy”. Besides, the “Effect on severity of arrhythmia (in words)” value in data set [1] (rats, given intravenously, after coronary ligature) is given as “more effective”. Moreover, the “AKP (IU/L)” value in [1] (setting [10]) is 144 ± 19 IU/L. In addition, in data set [1] (setting [10]), the “CK (IU/L)” value is 2203 ± 530 IU/L. The “LDH (IU/L)” value in data set [1] (setting [10]) is 451 ± 78 IU/L. Also, the “Dilation on cerebral vascular ring” value in [2] (setting [11]) is 73.1%. The “Dilation on cardiac vascular ring” value in [3] (setting [11]) was determined as 31.6%. In [4] (rat, in vivo, iv), the “Area of cerebral infarction” value is 38.2% and 27.6% and 21.9%. Further, the “Evans blue leached out from cerebral vessel (in words)” value in [5] (rats, intravenous once per day for 7 days, high and medium dose groups) was “very significant effect of reducing Evans blue being leached out from cerebral vessel”. For the same compound, the “Cerebral blood flow (in words)” value in the data set with cerebral blood flow (setting [12]) was “significantly increase blood flow”. The “Time for which blood flow was maintained” value with cerebral blood flow (setting [12]) is listed as “about 15 min”. The Survival duration is 36 min in the data set on acute hypoxia (high dose), 36 min in the data set with acute hypoxia (low dose) and 37 min in the data set on acute hypoxia (medium dose). In addition, the “Effect against platelet aggregation induced by ADP (in words)” value in [8] is given as “very good anti-platelet aggregation effect”. For the same compound, the “Effect against platelet aggregation induced by PAF (in words)” value in [9] is “very good anti-platelet aggregation effect”. The “Weight of platelet adhered on the silk” value in data set [6] (rats, arteriovenous short, high dose) stood at 8.91 ± 1.34 mg; in [6] (rats, arteriovenous short, low dose), 13.6 ± 1.89 mg; in data set [6] (rats, arteriovenous short, medium dose) it was 9.90 ± 1.53 mg. Besides, in the data set with blood viscosity (high dose groups), the “Blood viscosity effect compared with nimodipine positive control (in words)” value is “superior to the positive control group”. Moreover, the “Blood viscosity, low shear, medium shear and high shear (in words)” value in the data set on blood viscosity (intravenous once per day for 5 days, compared to solvent control group) is recorded as “decreased as dose increased”.
